Laboratory results as given in US10961245B2, “Substituted heterocycle fused gamma-carbolines for treatment of central nervous system disorders” (INTRA-CELLULAR THERAPIES, INC., priority 2016, dated 2021).
pIC50: −log10 of the molar value.

Columns and labels:
μ(MOP) (h) receptor = target: T1, μ(MOP) (h) receptor (Homo sapiens, UniProt P35372); assay: Cellular functional assay, μ (MOP) (h) antagonist effect (cAMP, HTRF); assay type: cell-based
T1 construct: expressed in transfected cells; host or cells: CHO cells
Protocol: Cellular and Nuclear Receptor Functional Assays are performed on the compounds of Formula II-B and according to the procedure of Wang, J. B. et al. (1994), FEBS Lett., 338:217-222. The compounds are tested at several concentrations to determine their IC50 or EC50.
Cellular agonist effects are calculated as percent of control response to a known reference agonist for each target and cellular antagonist effect is calculated as a percent inhibition of control reference agonist response for each target.
The following assay is performed to determine the effect of the Compound of Formula on the μ(MOP) (h) receptor: […]
The results are expressed as a percent of control agonist response: […]
and as a percent inhibition of control agonist response:
The EC50 values (concentration producing a half-maximal response) and IC50 values (concentration causing a half-maximal inhibition of the control agonist response) are determined by non-linear regression analysis of the concentration-response curves generated with mean replicate values using Hill equation curve fitting:
[formula] where Y=response, A=left asymptote of the curve, D=right asymptote of the curve, C=compound concentration, and C50=EC50 or IC50, and nH=slope factor. The analysis is performed using software developed in-house and validated by comparison with data generated by the commercial software SigmaPlot® 4.0 for Windows® (© 1997 by SPSS Inc.).
For the antagonists, the apparent dissociation constants (KB) are calculated using the modified Cheng Prusoff equation:
[formula] where A=concentration of reference agonist in the assay, and EC50A=EC50 value of the reference agonist.

5-HT2A = 5-HT2A (Homo sapiens, UniProt P28223); assay: Receptor binding 5-HT2A; details: read-out: Ki (nM) or maximum inhibition
Protocol: (§1) Receptor binding is determined for the Compounds of Formulas II-A and II-B using the tosylate salt of the compound of Formula A as a control. The following literature procedures are used, each of which reference is incorporated herein by reference in their entireties:
(§2) In general, the results are expressed as a percent of control specific binding:
(§3) [formula] and as a percent inhibition of control specific binding: […]
(§4) The IC50 values (concentration causing a half-maximal inhibition of control specific binding) and Hill coefficients (nH) are determined by non-linear regression analysis of the competition curves generated with mean replicate values using Hill equation curve fitting:
(§5) [formula] where Y=specific binding, A=left asymptote of the curve, D=right asymptote of the curve, C=compound concentration, C50=IC50, and nH=slope factor. This analysis was performed using in-house software and validated by comparison with data generated by the commercial software SigmaPlot® 4.0 for Windows® (© 1997 by SPSS Inc.). The inhibition constants (Ki) were calculated using the Cheng Prusoff equation:
(§6) [formula] where L=concentration of radioligand in the assay, and KD=affinity of the radioligand for the receptor. A Scatchard plot is used to determine the KD.

D1 = D1 (Homo sapiens, UniProt P21728); assay: Receptor binding D1; details: read-out: Ki (nM) or maximum inhibition
Protocol: as §1, §2, §3, §4, §5, §6

SERT = SERT (Homo sapiens, UniProt P31645); assay: Receptor binding SERT; details: read-out: Ki (nM) or maximum inhibition
Protocol: as §1
SERT: Park, Y. M. et al. (1999), Anal. Biochem., 269:94-104.
as §2, §3, §4, §5, §6

Mu opiate receptor = Mu opiate receptor (Homo sapiens, UniProt P35372); assay: Receptor binding Mu opiate receptor; details: read-out: Ki (nM) or maximum inhibition
Protocol: as §1
Mu opiate receptor: Wang, J. B. et al. (1994), FEBS Lett., 338:217-222.
as §2, §3, §4, §5, §6

T1 sequence (P35372 whole entry): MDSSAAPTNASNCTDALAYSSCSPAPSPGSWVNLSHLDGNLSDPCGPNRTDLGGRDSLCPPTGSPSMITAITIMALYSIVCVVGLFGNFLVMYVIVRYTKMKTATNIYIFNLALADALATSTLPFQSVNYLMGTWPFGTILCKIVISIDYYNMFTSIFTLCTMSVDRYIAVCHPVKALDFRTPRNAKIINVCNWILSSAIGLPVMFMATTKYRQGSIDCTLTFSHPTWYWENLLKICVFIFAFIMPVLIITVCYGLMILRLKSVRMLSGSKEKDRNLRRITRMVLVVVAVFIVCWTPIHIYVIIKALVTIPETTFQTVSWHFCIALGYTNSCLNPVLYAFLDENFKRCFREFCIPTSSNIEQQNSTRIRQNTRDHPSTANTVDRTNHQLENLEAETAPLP
Chain of D1 (P21728 whole entry): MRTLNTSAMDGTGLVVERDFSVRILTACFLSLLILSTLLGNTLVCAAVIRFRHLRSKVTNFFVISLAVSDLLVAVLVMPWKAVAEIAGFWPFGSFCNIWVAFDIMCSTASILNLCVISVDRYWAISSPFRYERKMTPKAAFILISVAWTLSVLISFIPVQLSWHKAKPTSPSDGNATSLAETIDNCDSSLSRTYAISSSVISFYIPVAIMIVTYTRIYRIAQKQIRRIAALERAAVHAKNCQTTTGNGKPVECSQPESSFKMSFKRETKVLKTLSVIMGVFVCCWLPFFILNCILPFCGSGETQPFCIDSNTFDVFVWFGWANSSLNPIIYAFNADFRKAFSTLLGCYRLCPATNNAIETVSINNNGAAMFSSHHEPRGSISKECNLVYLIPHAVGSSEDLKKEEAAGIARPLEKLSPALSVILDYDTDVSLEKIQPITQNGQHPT
Chain of Mu opiate receptor (P35372 whole entry): as the sequence (P35372 whole entry) above
Chain of SERT (P31645 whole entry, species assumed): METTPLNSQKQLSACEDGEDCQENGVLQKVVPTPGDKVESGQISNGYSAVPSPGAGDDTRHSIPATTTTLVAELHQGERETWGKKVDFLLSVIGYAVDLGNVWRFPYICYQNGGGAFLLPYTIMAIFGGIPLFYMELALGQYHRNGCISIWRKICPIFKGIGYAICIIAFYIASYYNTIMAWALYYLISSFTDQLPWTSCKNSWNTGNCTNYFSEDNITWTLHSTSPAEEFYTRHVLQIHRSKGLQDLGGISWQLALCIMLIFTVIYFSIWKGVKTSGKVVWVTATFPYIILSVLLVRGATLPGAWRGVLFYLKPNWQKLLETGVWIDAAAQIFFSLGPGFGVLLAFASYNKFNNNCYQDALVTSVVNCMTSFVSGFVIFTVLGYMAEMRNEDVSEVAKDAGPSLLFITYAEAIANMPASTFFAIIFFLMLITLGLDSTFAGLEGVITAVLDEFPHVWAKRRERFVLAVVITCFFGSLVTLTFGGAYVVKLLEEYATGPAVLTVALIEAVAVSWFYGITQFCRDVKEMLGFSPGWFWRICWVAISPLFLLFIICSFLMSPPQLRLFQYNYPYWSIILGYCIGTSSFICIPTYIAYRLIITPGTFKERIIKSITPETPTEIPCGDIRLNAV
Chain of 5-HT2A (P28223 whole entry): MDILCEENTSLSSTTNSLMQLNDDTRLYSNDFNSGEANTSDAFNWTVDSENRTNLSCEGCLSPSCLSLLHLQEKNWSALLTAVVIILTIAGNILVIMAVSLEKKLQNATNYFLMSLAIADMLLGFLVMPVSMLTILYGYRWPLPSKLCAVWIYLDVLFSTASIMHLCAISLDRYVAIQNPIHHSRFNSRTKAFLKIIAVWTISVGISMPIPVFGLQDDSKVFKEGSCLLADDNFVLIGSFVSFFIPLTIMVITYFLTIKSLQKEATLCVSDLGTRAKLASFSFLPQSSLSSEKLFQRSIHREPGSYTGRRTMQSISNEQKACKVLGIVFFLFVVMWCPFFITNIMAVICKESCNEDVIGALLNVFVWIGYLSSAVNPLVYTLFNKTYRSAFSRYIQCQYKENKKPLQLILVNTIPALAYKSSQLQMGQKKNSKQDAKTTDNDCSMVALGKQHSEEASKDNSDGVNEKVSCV

pIC50 (μ(MOP) (h) receptor; human recombinant CHO cells, DAMGO (20 nM) stimulus, cAMP)	Kb (μ(MOP) (h) receptor; modified Cheng Prusoff equation, DAMGO (20 nM), read-out: μ(MOP) (h) (antagonist effect) KB (apparent dissociation constant))	Structure (SMILES)	pIC50 (μ(MOP) (h) receptor; unit inferred, highest concentration tested)	Ki (5-HT2A)	Ki (D1)	inhibition at 1 µM (SERT)	Ki (Mu opiate receptor)
–	–	O=C1CN2c3c(cccc3[C@@H]3CN(CCCC(=O)c4ccncc4)CC[C@@H]32)N1 [Formula II-C]	< 5.00	37 nM	470 nM	40%	400 nM
5.89	140 nM	CN1C(=O)CN2c3c(cccc31)[C@@H]1CN(CCCC(=O)c3ccncc3)CC[C@@H]12 [Formula II-B]	–	–	–	–	–
